In patent US20250249110A1, “ANTIMICROBIAL PEPTIDE DERIVATIVE AND USE THEREOF” (SICHUAN UNIVERSITY, priority 2016, published 2025):
Where a SMILES comes first, the peptide text is derived from it. The star is where a group is joined. Succinyl(4-O-cholesteryl) = CC(C)CCC[C@@H](C)[C@H]1CC[C@H]2[C@@H]3CC=C4C[C@@H](OC(=O)CCC(=O)*)CC[C@]4(C)[C@H]3CC[C@]12C

Tests used:
mouse PBMC = assay: Immune-related cytokine expression by Q-PCR after PBMC stimulation; assay type: cell-based
Description: In order to determine the changes of cytokines in mouse PBMC after DP7-C stimulation, the isolated mouse PBMC is diluted to 1×10^6 cells/mL and added to a 6-well plate at 2 ml/well, in which the stimulation concentration of DP7-C is 200 μg/ml and the stimulation time is 4 h. After stimulation, the cells are collected and stored in a −80° C. refrigerator. Meanwhile, in order to verify whether DP7-C can reverse LPS-induced inflammatory reaction, an experiment is set up to stimulate PBMC together with LPS: PBMC is diluted to 1×10^6 cells/ml and added to a 6-well plate at 2 mL/well in which the stimulation concentration of DP7-C is 200 μg/mL; after 1 h, stimulated by LPS for 4 h, and cells are collected and stored in −80° C. refrigerator. After all samples are collected, the following steps are performed, including centrifugation, washing, total RNA extraction, reverse transcription and real-time quantitative PCR.

splenic lymphocytes = assay: Cellular immune response of splenic lymphocytes (intracellular cytokine flow cytometry); assay type: cell-based, mouse; details: spleen of immunized mice, OVA restimulation
Text: […]

YAC-1 cells = assay: NK cell killing activity after immunization (LDH release); assay type: cell-based, mouse; details: splenic lymphocytes 48 h after primary immunization
Description: Innate immunity plays an important role in anti-tumor immunity. We detected the killing activity of mouse NK cells after immunization with DP7-C adjuvant.
After 48 h of primary immunization, kill the mice by the cervical dislocation, and isolate splenic lymphocyte from the lymphocyte separation medium as effector cells.
Resuscitate and incubate YAC-1 cells, transfer one day before the experiment, and keep 2×10^6/20 ml. Stain with trypan blue. Available when activity is more than 95%.
• (1) Add target cells and effector cells into a 96-well plate (ratio of target cells to effector cells: 1:25, 1:50, 1:100, 1:200 as per 10,000 target cells per well) and incubate at 37° C. for 4 h. • (2) Centrifuge at 250 g, and take supernatant for LDH releasing test.

[1] = test system: Pseudomonas aeruginosa with fluorescence (PAO1-GFP); assay: Abdominally infected zebrafish model; assay type: in vivo; details: DP7-C 1 mg/mL; green fluorescence at 3 h, 8 h, 18 h
Description: Next, we established an abdominally infected zebrafish model through Pseudomonas aeruginosa with fluorescence (PAO1-GFP) to further verify the anti-infection effect of DP7-C.
The male and female AB wild zebrafish were mated according to the mating and breeding procedures. After spawning, the roe was collected, placed in an incubator at 28° C. and incubated in the seawater containing PTU. The seawater containing PTU was changed once a day. When zebrafish was incubated for 48 h, Pseudomonas aeruginosa with fluorescence (PAO1-GFP) diluted with DP7-C and normal saline was intraperitoneally injected, and photographs were taken at 3 h, 8 h and 18 h under a fluorescence microscope to observe the growth of PAO1-GFP in the abdomen of zebrafish.

[2] = test system: C26 subcutaneously implanted tumor; assay: Subcutaneously implanted tumor model of C26 mouse colon cancer; assay type: in vivo
Description: In order to further characterize the application potential of DP7-C micelles in tumor therapy, we established a subcutaneously implanted tumor model of C26 mouse colon cancer and used DP7-C to transmit anti-VEGF siRNA therapeutic genes for therapeutic research. • (1) On day 0, female BALB/c mice aged 6-8 weeks are subcutaneously inoculated with 0.1 mL of cell suspension (containing about 1.5×10^6 C26 cells). • (2) On day 8, when the tumor is palpable, mice are randomly divided into 4 groups, 8 mice for each group, and are labeled. • (3) Four groups of mice are intratumorally injected with 10 doses of normal saline (blank control group), blank DP7-C micelle (25 μg), DP7-C/no-sense control siRNA complex (25 μg/5 μg) or DP7-C/VEGF siRNA complex (25 μg/5 μg) respectively. • (4) On day 20, when the mice in the control group are already very weak, all the mice are killed by cervical dislocation; the tumor tissues in the abdominal cavity as well as the heart, liver, spleen, lung and kidney tissues are immediately collected, weighed and analyzed. The ascites of each group of mice is also collected and measured, and CD31 immunohistochemical staining is performed on tumor tissues of each experimental group. The collected heart, liver, spleen, lung and kidney tissues are analyzed by HE staining.

With `CC[C@H](C)[C@H](NC(=O)[C@H](CCCNC(=N)N)NC(=O)[C@H](Cc1c[nH]c2ccccc12)NC(=O)[C@H](CCC(N)=O)NC(=O)[C@@H](NC(=O)CCC(=O)O[C@H]1CC[C@@]2(C)C(=CC[C@H]3[C@@H]4CC[C@H]([C@H](C)CCCC(C)C)[C@@]4(C)CC[C@@H]32)C1)C(C)C)C(=O)N[C@@H](CCCNC(=N)N)C(=O)N[C@H](C(=O)N[C@@H](C)C(=O)N[C@H](C(=O)N[C@H](C(=O)N[C@@H](CCCNC(=N)N)C(=O)N[C@@H](CCCCN)C(N)=O)[C@@H](C)CC)C(C)C)C(C)C` [DP7-C, Chol-suc-VQWRIRVAVIRK-NH2] ({Succinyl(4-O-cholesteryl)}-VQWRIRVAVIRK-NH2) the “gene expression of IL-1β, MCP-1 and TNF-α” value (mouse PBMC; 200 μg/mL DP7-C together with LPS) was “significantly reduced”, the “expression of IL-1, IL-6, MCP-1, M-CSF, TNF-α and other cytokines related to immune activation” value (mouse PBMC; 200 μg/ml, 4 h) was “greatly increased” and the “percentage of CD4+/IFN-γ+, CD8+/IFN-γ+ and CD4+/IL-17A+ cells” value (splenic lymphocytes) was “increased”. The “NK cell killing activity” value (YAC-1 cells) was “slightly strong NK cell killing activity”, the “growth rate of PAO1-GFP in zebrafish abdominal cavity” value [1] was “much lower than that of NS group” and the “HE staining of major organ tissues” value ([2]; heart, liver, spleen, lung, kidney) was “no significant pathological changes”. The “average tumor weight (unit mm^3)” value ([2]; intratumoral injection, 10 doses) was 357.64±30.56 mm^3.
